Laboratory results: patent publication US12559474B2, “Triazine derivatives having virus replication inhibitory activity and pharmaceutical composition comprising the same” (priority 2021, dated 2026)
Where two headings read alike, the source gives them in different places.

Assays:
SARS-CoV-2 = assay: microbe, parasite or virus in culture; type: cell-based; conditions: Severe acute respiratory syndrome coronavirus 2, VeroE6/TMPRSS2, 72 h, 50% SARS-CoV-2 infected cell death inhibitory concentration, VeroE6/TMPRSS2 cells, 3 days culture
SARS-CoV-2 3CL protease = SARS-CoV-2 3CL protease (Severe acute respiratory syndrome coronavirus 2, UniProt P0DTD1); assay: biochemical; conditions: 50% SARS-CoV-2 3CL protease inhibitory concentration, read-out: IC50

Row | Structure (SMILES) | EC50 (SARS-CoV-2; class symbols) | IC50 (SARS-CoV-2 3CL protease; given as class symbols) | EC50 (SARS-CoV-2; CellTiter-Glo 2.0) | IC50 (SARS-CoV-2 3CL protease; RapidFire MS)
1 | CN(C)C(=O)c1ccc(Cn2c(=O)nc(Nc3cc4c(cc3Cl)OCC4)n(Cc3cc(F)c(F)c(F)c3)c2=O)c(=O)[nH]1 [Compound I-0064] | 1000 to 10000 nM | < 100 nM |  | 
2 | CN(C)C(=O)c1ccc(Cn2c(=O)nc(Nc3cc4cn(CC(F)F)nc4cc3Cl)n(Cc3cc(F)c(F)c(F)c3)c2=O)c(=O)[nH]1 [Compound I-0066] | 1000 to 10000 nM | < 100 nM |  | 
3 | COc1ccc(Nc2nc(=O)n(Cc3cc(Cl)c[nH]c3=O)c(=O)n2Cc2cc(F)c(F)c(F)c2)cc1 [Compound I-0069] | 1000 to 10000 nM | < 100 nM |  | 
4 | Cn1cc2cc(Nc3nc(=O)n(Cc4cc(Cl)c[nH]c4=O)c(=O)n3Cc3cc(F)c(F)c(F)c3)c(Cl)cc2n1 [Compound I-0077] | < 1000 nM | < 100 nM |  | 
5 | O=c1[nH]cc(Cl)cc1Cn1c(=O)nc(Nc2cc3cn(CCO)nc3cc2Cl)n(Cc2cc(F)c(F)c(F)c2)c1=O [Compound I-0079] | 1000 to 10000 nM | < 100 nM |  | 
6 | COc1ccc(Nc2nc(=O)n(Cc3cc4ccsc4[nH]c3=O)c(=O)n2Cc2cc(F)c(F)c(F)c2)cc1 [Compound I-0081] | < 1000 nM | < 100 nM |  | 
7 | COc1ccc(Nc2nc(=O)n(Cc3cc4cccnc4[nH]c3=O)c(=O)n2Cc2cc(F)c(F)c(F)c2)cc1 [Compound I-0084] | 1000 to 10000 nM | < 100 nM |  | 
8 | COc1cc(Cl)c(Nc2nc(=O)n(Cc3ccc[nH]c3=O)c(=O)n2Cc2cc(F)c(F)c(F)c2)c(OC)c1 [Compound I-0094] | 1000 to 10000 nM | < 100 nM |  | 
9 | O=c1[nH]cccc1Cn1c(=O)nc(Nc2ccc(OCC(F)F)cc2Cl)n(Cc2cc(F)c(F)c(F)c2)c1=O [Compound I-0095] | 1000 to 10000 nM | < 100 nM |  | 
10 | COc1ccc(Nc2nc(=O)n(Cc3cc4cc(OC)ccc4[nH]c3=O)c(=O)n2Cc2cc(F)c(F)c(F)c2)cc1 [Compound I-0100] | 1000 to 10000 nM | < 100 nM |  | 
11 | Cn1cc2cc(Nc3nc(=O)n(Cc4cc5ccsc5[nH]c4=O)c(=O)n3Cc3cc(F)c(F)c(F)c3)c(Cl)cc2n1 [Compound I-0110] |  |  | 321 nM | 4.2 nM
12 | Cn1cc2cc(Nc3nc(=O)n(Cc4cn(C)c(=O)[nH]c4=O)c(=O)n3Cc3cc(F)c(F)c(F)c3)c(Cl)cc2n1 [Compound I-0111] | 1000 to 10000 nM | < 100 nM |  | 
13 | Cc1cncc(-n2c(=O)nc(Nc3cc4cn(C)nc4cc3F)n(Cc3cc(F)c(F)c(F)c3)c2=O)c1 [Compound I-0112] | < 1000 nM | < 100 nM |  | 
14 | Cc1cncc(-n2c(=O)nc(Nc3cc4cn(C)nc4cc3C)n(Cc3cc(F)c(F)c(F)c3)c2=O)c1 [Compound I-0114] | 1000 to 10000 nM | < 100 nM |  | 
15 | Cc1nc2cc(C)c(Nc3nc(=O)n(Cc4ccc[nH]c4=O)c(=O)n3Cc3cc(F)c(F)c(F)c3)cc2s1 [Compound I-0116] | 1000 to 10000 nM | < 100 nM |  | 
16 | COc1ccc(Oc2nc(=O)n(Cc3ccc[nH]c3=O)c(=O)n2Cc2cc(F)c(F)c(F)c2)c(C)c1 [Compound I-0128] | < 1000 nM |  |  | 9700 nM
17 | COc1ccc(Nc2nc(=O)n(Cc3ccc[nH]c3=O)c(=O)n2Cc2cc(F)c(F)c(F)c2)c(C)c1 [Compound I-0129] | 1000 to 10000 nM | < 100 nM |  | 
18 | O=c1[nH]cccc1Cn1c(=O)nc(NC2CCOCC2)n(Cc2cc(F)c(F)c(F)c2)c1=O [Compound I-0132] | < 1000 nM | 1000 to 10000 nM |  | 2300 nM
19 | COc1ccc(Nc2nc(=O)n(Cc3ccc[nH]c3=O)c(=O)n2CC2CCCCC2)cc1 [Compound I-0134] | < 1000 nM | 1000 to 10000 nM |  | 4000 nM
20 | COc1ccc(Nc2nc(=O)n(-c3cccnc3)c(=O)n2Cc2cc(F)c(F)c(F)c2)cc1 [Compound I-0135] | 1000 to 10000 nM | 100 to 1000 nM |  | 
21 | COc1ccc(Nc2nc(=O)n(-c3cncc4ccccc34)c(=O)n2Cc2cc(F)c(F)c(F)c2)cc1 [Compound I-0136] | 1000 to 10000 nM | < 100 nM |  | 
22 | COc1ccc(Nc2nc(=O)n(-c3cncc4ccccc34)c(=O)n2Cc2cc(F)c(F)c(F)c2)c(Cl)c1 [Compound I-0152] | < 1000 nM | < 100 nM |  | 
23 | CCc1cc(OC)ccc1Nc1nc(=O)n(Cc2ccc[nH]c2=O)c(=O)n1Cc1cc(F)c(F)c(F)c1 [Compound I-0165] | 1000 to 10000 nM | < 100 nM |  | 
24 | COc1ccc(Nc2nc(=O)n(Cc3ccc[nH]c3=O)c(=O)n2Cc2cc(F)c(F)c(F)c2)c(Br)c1 [Compound I-0166] | < 1000 nM | < 100 nM |  | 

Row | Structure (SMILES) | EC50 (SARS-CoV-2; class symbols) | IC50 (SARS-CoV-2 3CL protease; given as class symbols) | EC50 (SARS-CoV-2; CellTiter-Glo 2.0) | IC50 (SARS-CoV-2 3CL protease; RapidFire MS)
25 | O=c1[nH]cccc1Cn1c(=O)nc(N2Cc3ccccc3C2)n(Cc2cc(F)c(F)c(F)c2)c1=O [Compound I-0180] |  |  | 6410 nM | 58 nM
26 | COc1ccc(Nc2nc(=O)n(Cc3ccc[nH]c3=O)c(=O)n2Cc2cc(F)c(F)cc2Cl)cc1 [Compound I-0194] | 1000 to 10000 nM | < 100 nM |  | 
27 | COc1ccc(Nc2nc(=O)n(Cc3ccc[nH]c3=O)c(=O)n2Cc2ccc(F)c(Br)c2)cc1 [Compound I-0196] | 1000 to 10000 nM | < 100 nM |  | 
28 | COc1ccc(Nc2nc(=O)n(Cc3ccc[nH]c3=O)c(=O)n2Cc2cc(Cl)cc(Cl)c2)cc1 [Compound I-0213] | 1000 to 10000 nM | < 100 nM |  | 
29 | COc1ccc(Nc2nc(=O)n(Cc3ccc[nH]c3=O)c(=O)n2Cc2cc(Cl)ccc2Cl)cc1 [Compound I-0214] | < 1000 nM | < 100 nM |  | 
30 | COc1ccc(Nc2nc(=O)n(Cc3ccc[nH]c3=O)c(=O)n2Cc2cc(Cl)c(F)cc2F)cc1 [Compound I-0226] | 1000 to 10000 nM | < 100 nM |  | 
31 | COc1ccc(Nc2nc(=O)n(Cc3ccc[nH]c3=O)c(=O)n2Cc2cc(Cl)c(F)c(Cl)c2)cc1 [Compound I-0227] | 1000 to 10000 nM | < 100 nM |  | 
32 | COc1ccc(Nc2nc(=O)n(Cc3ccc[nH]c3=O)c(=O)n2Cc2cc(Cl)ccc2F)cc1 [Compound I-0231] | 1000 to 10000 nM | < 100 nM |  | 
33 | Cn1cc2cc(Nc3nc(=O)n(Cc4cc5cccnc5[nH]c4=O)c(=O)n3Cc3cc(F)c(F)c(F)c3)c(Cl)cc2n1 [Compound I-0236] | < 1000 nM | < 100 nM |  | 
34 | O=c1[nH]c2ncccc2cc1Cn1c(=O)nc(Nc2cc3cn(CCO)nc3cc2Cl)n(Cc2cc(F)c(F)c(F)c2)c1=O [Compound I-0237] |  |  | 3390 nM | 4.2 nM
35 | O=c1[nH]cccc1Cn1c(=O)nc(Nc2cc3c(cc2Cl)OCC3)n(Cc2cc(F)c(F)c(F)c2)c1=O [Compound I-0239] |  |  | 225 nM | 3.9 nM
36 | CCOc1ccc(Nc2nc(=O)n(Cc3ccc[nH]c3=O)c(=O)n2Cc2cc(F)c(F)c(F)c2)c(Cl)c1 [Compound I-0242] | < 1000 nM | < 100 nM |  | 
37 | COc1cc(Cl)c(Nc2nc(=O)n(Cc3ccc[nH]c3=O)c(=O)n2Cc2cc(F)c(F)c(F)c2)cn1 [Compound I-0245] | 1000 to 10000 nM | < 100 nM |  | 
38 | O=c1[nH]cccc1Cn1c(=O)nc(Nc2cc3ccnn3cc2Cl)n(Cc2cc(F)c(F)c(F)c2)c1=O [Compound I-0247] | 1000 to 10000 nM |  | 3540 nM | 25 nM
39 | COCCCn1cc2cc(Nc3nc(=O)n(Cc4ccc[nH]c4=O)c(=O)n3Cc3cc(F)c(F)c(F)c3)c(Cl)cc2n1 [Compound I-0248] | 1000 to 10000 nM | < 100 nM |  | 
40 | O=c1[nH]cccc1Cn1c(=O)nc(Nc2cc3cn(CCN4CCOCC4)nc3cc2Cl)n(Cc2cc(F)c(F)c(F)c2)c1=O [Compound I-0249] | 1000 to 10000 nM | < 100 nM |  | 
41 | O=c1[nH]cc(Cl)cc1Cn1c(=O)nc(Nc2cc3cn(CCN4CCOCC4)nc3cc2Cl)n(Cc2cc(F)c(F)c(F)c2)c1=O [Compound I-0250] | 1000 to 10000 nM | < 100 nM |  | 
42 | O=c1[nH]cc(Cl)cc1Cn1c(=O)nc(Nc2cc3cn([C@H]4CCC[C@@H]4O)nc3cc2Cl)n(Cc2cc(F)c(F)c(F)c2)c1=O [Compound I-0251] | 1000 to 10000 nM | < 100 nM |  | 
43 | COc1ccc(Nc2nc(=O)n(Cc3ccc[nH]c3=O)c(=O)n2Cc2ccc(F)c(Cl)c2)cc1 [Compound I-0252] | 1000 to 10000 nM | < 100 nM |  | 
44 | COc1ccc(Nc2nc(=O)n(Cc3ccc[nH]c3=O)c(=O)n2Cc2ccc(F)c(C#N)c2)cc1 [Compound I-0253] | 1000 to 10000 nM | < 100 nM |  | 
45 | COc1ccc(Nc2nc(=O)n(Cc3ccc[nH]c3=O)c(=O)n2Cc2cc(F)c(F)c(Cl)c2)cc1 [Compound I-0254] | 1000 to 10000 nM | < 100 nM |  | 
46 | COc1ccc(Nc2nc(=O)n(Cc3ccc[nH]c3=O)c(=O)n2Cc2cc(F)c(F)c(Cl)c2)c(Cl)c1 [Compound I-0255] | < 1000 nM | < 100 nM |  | 
47 | COc1ccc(Nc2nc(=O)n(Cc3ccc[nH]c3=O)c(=O)n2Cc2cc(F)c(F)c(F)c2F)cc1 [Compound I-0256] | 1000 to 10000 nM | < 100 nM |  | 
